From PubChem BioAssay (NCI)
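Method: 48-hour compound exposure of cells in 96-well plates, five concentrations, linear interpolation of endpoints. At the GI50, growth is halved. TGI marks complete inhibition of growth.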

Key:
Assay in all cases: NCI-60 cell line screen, 48 h
SNB-19 CNS = tested on: SNB-19 CNS
NCI/ADR-RES ovarian = tested on: NCI/ADR-RES ovarian
DU-145 prostate = tested on: DU-145 prostate
SNB-75 CNS = tested on: SNB-75 CNS
LOX IMVI melanoma = tested on: LOX IMVI melanoma
HCT-116 colon = tested on: HCT-116 colon
SF-295 CNS = tested on: SF-295 CNS
MDA-MB-231 breast = tested on: MDA-MB-231 breast
786-0 renal = tested on: 786-0 renal
SR leukemia = tested on: SR leukemia

Row | Structure (SMILES) | TGI (SNB-19 CNS) [µM] | TGI (NCI/ADR-RES ovarian) [µM] | TGI (DU-145 prostate) [µM] | TGI (SNB-75 CNS) [µM] | TGI (LOX IMVI melanoma) [µM] | TGI (HCT-116 colon) [µM] | TGI (SF-295 CNS) [µM] | TGI (MDA-MB-231 breast) [µM] | TGI (786-0 renal) [µM] | GI50 (SNB-19 CNS) [µM] | GI50 (NCI/ADR-RES ovarian) [nM] | GI50 (DU-145 prostate) [nM] | GI50 (SR leukemia) [nM] | TGI (SR leukemia) [µM] | GI50 (SNB-75 CNS) [nM] | GI50 (LOX IMVI melanoma) [nM] | GI50 (HCT-116 colon) [nM] | GI50 (MDA-MB-231 breast) [nM] | GI50 (786-0 renal) [µM] | GI50 (SF-295 CNS) [µM]
1 | CCOc1ccccc1/C=C1\NC(=O)N(/C=C2\C(=O)Oc3ccccc3C2=O)C1=O | > 100 | > 100 | > 100 | > 100 | > 100 | > 100 | > 100 | > 100 | > 100 | – | – | – | – | – | – | – | – | – | – | –
2 | COc1cc(CSc2nc3ccc(C)cc3c(=O)n2Cc2ccccc2)cc(OC)c1OC | > 100 | 14.6 | 20.4 | 4.21 | > 100 | 48.9 | – | > 100 | 65.6 | 5.93 | 1510 | 3140 | 372 | 11.1 | 804 | 4660 | 2080 | 3260 | 7.49 | –
3 | C=C1CC(CCCl)(c2ccccc2)OC1=O (stereo not drawn) | > 100 | – | – | 71 | > 62.2 | > 53.9 | > 100 | – | 31.7 | – | – | – | – | 52.6 | – | – | – | – | – | –
4 | CCCNCc1nc2ccc(Br)cc2c(=O)n1CCC | 30.5 | – | – | 31.7 | 17.7 | 21.5 | 30.6 | – | 29.5 | – | – | – | – | > 100 | – | – | – | – | – | –
5 | N=C(N)SCCc1cn2ccccc2n1 | > 100 | – | – | > 100 | > 100 | > 100 | > 100 | – | > 100 | – | – | – | – | > 100 | – | – | – | – | – | –
6 | Cc1ccccc1C(=O)Oc1ccc(Oc2ccccc2)cc1 | > 100 | – | – | > 100 | – | > 100 | > 100 | – | > 100 | – | – | – | – | – | – | – | – | – | – | –
7 | Nc1ccc(Nc2nc(F)nc(-c3c4ccccc4c4n3CCS4)n2)cc1 | 30.3 | – | – | 31 | 24.6 | 28 | 33.7 | – | 32 | – | – | – | – | – | – | – | – | – | – | –
8 | N=C(c1ccccc1)N(O)C1CCCCC1 | > 100 | – | – | > 100 | > 100 | > 100 | > 100 | – | > 100 | – | – | – | – | > 100 | – | – | – | – | – | –
9 | CC(=O)O[C@@H]1CO[C@H]2O[C@H]3[C@@H](C(C=O)=C[C@H](O)[C@@H]4C5=C(C(C)C)CC[C@]5(C)CC[C@@]34C)[C@@]2(O)C1=O | 1.97 | 1.06 | 2.02 | 1.35 | 0.687 | 0.27 | 3.98 | 0.407 | 0.253 | – | – | – | – | – | – | – | – | – | – | –
10 | O=C(Nc1c(-c2nc3ccccc3[nH]2)sc(=S)n1-c1ccccc1)c1ccccc1 | > 100 | – | – | 58.4 | > 100 | – | > 100 | – | > 100 | – | – | – | – | – | – | – | – | – | – | –
11 | O=C(OCCOCBr)c1ccccc1 | > 100 | – | – | > 100 | > 100 | > 100 | > 100 | – | > 100 | – | – | – | – | > 100 | – | – | – | – | – | –
12 | CC(=O)OC1COC(S[As](C)C)C(OC(C)=O)C1OC(C)=O (stereo not drawn) | 49.5 | 0.974 | 0.902 | 21.7 | 0.691 | 2.04 | 8.31 | 2.86 | 1.12 | 14.7 | 155 | 70.1 | – | – | 3490 | 223 | 170 | 512 | 0.0811 | 2.19
13 | Nc1ccc2c(c1)C(=O)c1c(F)cccc1-2 | > 100 | > 100 | > 100 | > 100 | > 100 | > 100 | > 100 | > 100 | > 100 | – | – | – | – | – | – | – | – | – | – | –
14 | Cn1c(CCC#N)nc2ccc(Br)cc2c1=O | – | – | – | > 100 | > 100 | – | > 100 | – | > 100 | – | – | – | – | – | – | – | – | – | – | –
15 | COc1ccc2[nH]cc(-c3nc(-c4cn(C)c5ccncc45)cs3)c2c1 | 3.57 | – | 3.11 | 29 | – | 3.21 | 25.7 | 3.4 | 2.9 | 1.79 | – | 1700 | – | – | 15300 | – | 1770 | 1870 | 1.54 | 12.3
16 | COc1cc2c(c(OC)c1OC)-c1[nH]ncc1CC2 | > 100 | – | – | > 100 | > 100 | > 100 | > 100 | – | > 100 | – | – | – | – | > 100 | – | – | – | – | – | –
17 | CCOC(=O)/N=C(\N)SCc1ccccc1 | > 100 | – | – | > 100 | > 100 | > 100 | > 100 | – | > 100 | – | – | – | – | > 100 | – | – | – | – | – | –
18 | CC(C)C(=O)N[C@@H](C)C(=O)N(Cc1ccc2ccccc2c1)N=O | > 100 | – | – | > 100 | > 100 | > 100 | > 100 | – | > 100 | – | – | – | – | – | – | – | – | – | – | –
19 | O=C(N/N=C1\CCc2ccccc2C1)N/N=C1\CCc2ccccc2C1 | > 10 | > 10 | > 10 | – | – | > 10 | > 10 | > 10 | > 10 | – | – | – | – | > 10 | – | – | – | – | – | –
20 | O=c1/c(=C/c2ccc(Cl)cc2Cl)sc2nc3ccccc3n12 | > 100 | – | – | > 100 | > 100 | > 100 | > 100 | – | > 100 | – | – | – | – | – | – | – | – | – | – | –
21 | ClCCN(CCCl)c1ccc(-n2cnc3c(Cl)ncnc32)cc1 | 17.4 | 20.3 | 3.59 | 7.37 | 4.09 | 3.33 | – | 11.1 | 28.4 | 5.4 | 4150 | 1880 | 2060 | 6.55 | 2060 | 2000 | 1820 | 3280 | 14 | –
22 | C(=C\c1csnn1)/c1cccnc1 | > 100 | – | – | > 100 | > 100 | > 100 | > 100 | – | > 100 | – | – | – | – | – | – | – | – | – | – | –
23 | O=C1Nc2ccccc2C1Cc1ccccc1 (stereo not drawn) | > 100 | – | > 100 | > 100 | > 100 | > 100 | – | – | > 100 | – | – | – | – | > 100 | – | – | – | – | – | –
24 | O=c1c2ccc3cccc4c(=O)cc(c5ccccc15)-c2c34 | > 100 | – | – | > 100 | > 100 | > 100 | > 100 | – | > 100 | – | – | – | – | > 100 | – | – | – | – | – | –
25 | COc1cc(-c2[nH]ccc2Cl)oc1C1=C2N=C3C=C2C(C(C)C)C1CCCCCCCC3 (stereo not drawn) | 5.92 | – | 1.85 | 3.18 | 0.348 | 0.992 | 2.39 | 1.56 | 2.34 | – | – | – | – | 0.739 | – | – | – | – | – | –
